Assay results as given in patent publication US10947499B2, “Selection of stem cell clones with defined differentiation capabilities” (Research Development Foundation, priority 2009, dated 2021).

Columns and labels:
human ES cells = test: Seeding of individualized human ES cells in 96-well plates; type: cell-based; details: similar to HA-100 but at 10-fold lower concentration
[1] = system: Rho-associated kinase (ROCK); details: cited from earlier work

Cc1cncc2cccc(S(=O)(=O)N3CCCNC[C@@H]3C)c12 [Clone H-1152, (S)-(+)-2-Methyl-1-[(4-methyl-5-isoquinolinyl)sulfonyl]homopiperazine]
seeding of individualized human ES cells (human ES cells): very efficient seeding | potency relative to HA-100 [1]: approximately ten-fold
